Columns and labels:
PARP7 = molecular target: T1, PARP7 (Homo sapiens, UniProt Q7Z3E1); experiment: Probe Displacement Assay for PARP7 (MSD electrochemiluminescent, biotinylated probe RBNO11147); settings: displacement of biotinylated probe RBNO11147 from PARP7 NAD+-binding site; read-out: MSD ProbeDisp PARP7 IC50
T1 sequence (Q7Z3E1 1-657): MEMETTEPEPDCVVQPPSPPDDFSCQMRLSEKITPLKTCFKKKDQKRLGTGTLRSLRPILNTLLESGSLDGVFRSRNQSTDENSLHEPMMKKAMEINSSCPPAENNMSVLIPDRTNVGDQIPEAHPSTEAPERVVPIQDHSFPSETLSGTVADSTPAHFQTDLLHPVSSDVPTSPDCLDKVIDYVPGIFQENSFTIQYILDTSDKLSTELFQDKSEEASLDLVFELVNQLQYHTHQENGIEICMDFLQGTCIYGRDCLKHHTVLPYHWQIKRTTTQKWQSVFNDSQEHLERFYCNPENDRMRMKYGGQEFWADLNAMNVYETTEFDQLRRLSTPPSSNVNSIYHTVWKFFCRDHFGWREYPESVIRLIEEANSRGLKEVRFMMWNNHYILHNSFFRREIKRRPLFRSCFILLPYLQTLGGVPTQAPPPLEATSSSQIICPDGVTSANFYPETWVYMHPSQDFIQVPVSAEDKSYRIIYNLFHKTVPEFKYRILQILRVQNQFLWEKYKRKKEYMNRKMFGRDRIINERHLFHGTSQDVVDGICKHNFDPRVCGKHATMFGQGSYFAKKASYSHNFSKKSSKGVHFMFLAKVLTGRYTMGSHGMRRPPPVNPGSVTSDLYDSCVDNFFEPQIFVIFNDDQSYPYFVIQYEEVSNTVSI
Description: Displacement of a biotinylated probe (RBNO11147; Wigle et al., Cell Chemical Biology, 2020, pp. 877-887) from the PARP7 NAD+-binding site was measured in vitro using a Mesoscale Discovery electrochemiluminescent assay. […] Next, 10 ml of 10 nM PARP7 protein incubated for 1 hour at room temperature with a dose response curve of each test compound in a Greiner LDV polypropylene plate (#781201) is added to the MSD plate containing the immobilized probe. The interaction is allowed to reach equilibrium for 1.5 hours, and then 10 ml of SULFO-TAG labeled anti-GST antibody (Cat #R32AA-1) is added to each well and allowed to incubate for an additional 1.5 hours at room temperature. Finally, 10 ml of MSD read buffer T (4×, Cat. #R92C-1) is added to each well using a Bravo liquid handler to prevent air bubbles in the wells, and the plates are subsequently read in an MSD instrument. Light intensity is then measured to quantify the amount of PARP7 bound to the immobilized probe on the plate.

[1] = system: endogenous cellular STAT1 (phosphorylated at Tyr701) in NCI-H1373 cells; experiment: Phospho-STAT1 (Tyr701) LANCE Ultra TR-FRET Detection Assay; type: cell-based; settings: Homo sapiens, NCI-H1373, 48 h, phospho-STAT1 (Tyr701) induction, read-out: NH1373 pSTAT1 EC50

| SMILES | IC50 (PARP7) [nM] | EC50 [1] [nM] |
| --- | --- | --- |
| C[C@@H](CCCn1ccc2cc(-c3nc(C(F)(F)F)n(C)n3)c(F)cc2c1=O)Nc1cn[nH]c(=O)c1C(F)(F)F [Example 300, (S)-7-fluoro-6-(1-methyl-5-(trifluoromethyl)-1H-1,2,4-triazol-3-yl)-2-(4-((6-oxo-5-(trifluoromethyl)-1,6-dihydropyridazin-4-yl)amino)pentyl)isoquinolin-1(2H)-one] | 0.413 | 56.1 |
| C[C@@H](CCCn1ccc2cc(-c3nc(C(F)F)cs3)c(F)cc2c1=O)Nc1cn[nH]c(=O)c1C(F)(F)F [Example 301, (S)-6-(4-(difluoromethyl)thiazol-2-yl)-7-fluoro-2-(4-((6-oxo-5-(trifluoromethyl)-1,6-dihydropyridazin-4-yl)amino)pentyl)isoquinolin-1(2H)-one] | 0.508 | 549 |
| C[C@@H](CCCn1ccc2cc(-c3ncc(CN)cn3)c(F)cc2c1=O)Nc1cn[nH]c(=O)c1C(F)(F)F [Example 302, (S)-6-(5-(aminomethyl)pyrimidin-2-yl)-7-fluoro-2-(4-((6-oxo-5-(trifluoromethyl)-1,6-dihydropyridazin-4-yl)amino)pentyl)isoquinolin-1(2H)-one] | 2.06 | 108 |
| CC[C@@H](CCCn1ccc2cc(-c3ncc(Cl)c(N)n3)c(F)cc2c1=O)Nc1cn[nH]c(=O)c1C(F)(F)F [Example 303, (S)-6-(4-amino-5-chloropyrimidin-2-yl)-7-fluoro-2-(4-((6-oxo-5-(trifluoromethyl)-1,6-dihydropyridazin-4-yl)amino)hexyl)isoquinolin-1(2H)-one] | 0.273 | 3.43 |
| C[C@@H](CCCn1ccc2cc(-c3cc4ccccn4n3)c(F)cc2c1=O)Nc1cn[nH]c(=O)c1C(F)(F)F [Example 304, (S)-7-fluoro-2-(4-((6-oxo-5-(trifluoromethyl)-1,6-dihydropyridazin-4-yl)amino)pentyl)-6-(pyrazolo[1,5-a]pyridin-2-yl)isoquinolin-1(2H)-one] | 0.199 | 25.6 |
| C[C@@H](CCCn1ccc2cc(-c3cn4ccccc4n3)c(F)cc2c1=O)Nc1cn[nH]c(=O)c1C(F)(F)F [Example 305, (S)-7-fluoro-6-(imidazo[1,2-a]pyridin-2-yl)-2-(4-((6-oxo-5-(trifluoromethyl)-1,6-dihydropyridazin-4-yl)amino)pentyl)isoquinolin-1(2H)-one] | 0.387 | 57 |
| C[C@@H](CCCn1ccc2cc(-c3nc4ccccn4n3)c(F)cc2c1=O)Nc1cn[nH]c(=O)c1C(F)(F)F [Example 306, (S)-6-([1,2,4]triazolo[1,5-a]pyridin-2-yl)-7-fluoro-2-(4-((6-oxo-5-(trifluoromethyl)-1,6-dihydropyridazin-4-yl)amino)pentyl)isoquinolin-1(2H)-one] | 0.21 | 2.18 |
| C[C@@H](CCCn1ccc2cc(-c3nc4ccccc4o3)c(F)cc2c1=O)Nc1cn[nH]c(=O)c1C(F)(F)F [Example 307, (S)-6-(benzo[d]oxazol-2-yl)-7-fluoro-2-(4-((6-oxo-5-(trifluoromethyl)-1,6-dihydropyridazin-4-yl)amino)pentyl)isoquinolin-1(2H)-one] | 0.352 | 11.2 |
| C[C@@H](CCCn1ccc2cc(-c3nc4ccccc4s3)c(F)cc2c1=O)Nc1cn[nH]c(=O)c1C(F)(F)F [Example 308, (S)-6-(benzo[d]thiazol-2-yl)-7-fluoro-2-(4-((6-oxo-5-(trifluoromethyl)-1,6-dihydropyridazin-4-yl)amino)pentyl)isoquinolin-1(2H)-one] | 0.387 | 35.8 |
| C[C@@H](CCCn1ccc2cc(-c3ncc(C(F)(F)F)s3)c(F)cc2c1=O)Nc1cn[nH]c(=O)c1C(F)(F)F [Example 309, (S)-7-fluoro-2-(4-((6-oxo-5-(trifluoromethyl)-1,6-dihydropyridazin-4-yl)amino)pentyl)-6-(5-(trifluoromethyl)thiazol-2-yl)isoquinolin-1(2H)-one] | 0.258 | 149 |
| Cc1cc(NC2CC2)nc(-c2cc3ccn(CCC[C@H](C)Nc4cn[nH]c(=O)c4C(F)(F)F)c(=O)c3cc2F)n1 [Example 310, (S)-6-(4-(cyclopropylamino)-6-methylpyrimidin-2-yl)-7-fluoro-2-(4-((6-oxo-5-(trifluoromethyl)-1,6-dihydropyridazin-4-yl)amino)pentyl)isoquinolin-1(2H)-one] | 1.3 | 910 |
| C[C@@H](CCCn1ccc2cc(-c3ncc(C(F)(F)F)c(N4C[C@@H](O)[C@@H]4C)n3)c(F)cc2c1=O)Nc1cn[nH]c(=O)c1C(F)(F)F [Example 311, 7-fluoro-6-(4-((2S,3R)-3-hydroxy-2-methylazetidin-1-yl)-5-(trifluoromethyl)pyrimidin-2-yl)-2-((S)-4-((6-oxo-5-(trifluoromethyl)-1,6-dihydropyridazin-4-yl)amino)pentyl)isoquinolin-1(2H)-one] | 0.258 | 14 |
| C[C@@H](CCCn1ccc2cc(-c3ncc(C(F)(F)F)c(N4C[C@@H](O)C[C@@H]4C)n3)c(F)cc2c1=O)Nc1cn[nH]c(=O)c1C(F)(F)F [Example 312, 7-fluoro-6-(4-((2S,4S)-4-hydroxy-2-methylpyrrolidin-1-yl)-5-(trifluoromethyl)pyrimidin-2-yl)-2-((S)-4-((6-oxo-5-(trifluoromethyl)-1,6-dihydropyridazin-4-yl)amino)pentyl)isoquinolin-1(2H)-one] | 0.623 | 70 |
| C[C@@H](CCCn1ccc2cc(-c3ncc(C(F)(F)F)c(N4C[C@H](O)C[C@@H]4C)n3)c(F)cc2c1=O)Nc1cn[nH]c(=O)c1C(F)(F)F [Example 313, 7-fluoro-6-(4-((2S,4R)-4-hydroxy-2-methylpyrrolidin-1-yl)-5-(trifluoromethyl)pyrimidin-2-yl)-2-((S)-4-((6-oxo-5-(trifluoromethyl)-1,6-dihydropyridazin-4-yl)amino)pentyl)isoquinolin-1(2H)-one] | 0.192 | 18.4 |
| C[C@@H](CCCn1cnc2cc(-c3ncc(C(F)(F)F)c(N4C[C@@H](O)[C@@H]4C)n3)c(F)cc2c1=O)Nc1cn[nH]c(=O)c1C(F)(F)F [Example 314, 6-fluoro-7-(4-((2S,3R)-3-hydroxy-2-methylazetidin-1-yl)-5-(trifluoromethyl)pyrimidin-2-yl)-3-((S)-4-((6-oxo-5-(trifluoromethyl)-1,6-dihydropyridazin-4-yl)amino)pentyl)quinazolin-4(3H)-one] | 0.185 | 6.08 |
| Nc1nc(-c2cc3ccn(CCC[C@H](COC(F)F)Nc4cn[nH]c(=O)c4C(F)(F)F)c(=O)c3cc2F)ncc1C(F)F [Example 376, (R)-6-(4-amino-5-(difluoromethyl)pyrimidin-2-yl)-2-(5-(difluoromethoxy)-4-((6-oxo-5-(trifluoromethyl)-1,6-dihydropyridazin-4-yl)amino)pentyl)-7-fluoroisoquinolin-1(2H)-one] | 0.339 | 3.03 |
| O=c1[nH]ncc(N[C@H](CCCn2ccc3cc(-c4ncc(C(F)F)cn4)c(F)cc3c2=O)COC(F)F)c1C(F)(F)F [Example 377, (R)-2-(5-(difluoromethoxy)-4-((6-oxo-5-(trifluoromethyl)-1,6-dihydropyridazin-4-yl)amino)pentyl)-6-(5-(difluoromethyl)pyrimidin-2-yl)-7-fluoroisoquinolin-1(2H)-one] | 0.179 | 1.15 |
| Nc1nc(-c2cc3ccn(CCC[C@H](COC(F)F)Nc4cn[nH]c(=O)c4C(F)(F)F)c(=O)c3cc2F)ncc1Cl [Example 378, (R)-6-(4-amino-5-chloropyrimidin-2-yl)-2-(5-(difluoromethoxy)-4-((6-oxo-5-(trifluoromethyl)-1,6-dihydropyridazin-4-yl)amino)pentyl)-7-fluoroisoquinolin-1(2H)-one] | 0.255 | 2.45 |
| Nc1nc(-c2cc3ccn(CCC[C@H](COC(F)F)Nc4cn[nH]c(=O)c4C(F)(F)F)c(=O)c3cc2F)ncc1C(F)(F)F [Example 379, (R)-6-(4-amino-5-(trifluoromethyl)pyrimidin-2-yl)-2-(5-(difluoromethoxy)-4-((6-oxo-5-(trifluoromethyl)-1,6-dihydropyridazin-4-yl)amino)pentyl)-7-fluoroisoquinolin-1(2H)-one] | 0.14 | 2.43 |
| Nc1nc(-c2cc3ccn(CCC[C@H](COC(F)F)Nc4cn[nH]c(=O)c4C(F)(F)F)c(=O)c3cc2F)ccc1C(F)(F)F [Example 380, (R)-6-(6-amino-5-(trifluoromethyl)pyridin-2-yl)-2-(5-(difluoromethoxy)-4-((6-oxo-5-(trifluoromethyl)-1,6-dihydropyridazin-4-yl)amino)pentyl)-7-fluoroisoquinolin-1(2H)-one] | 0.211 | 4.88 |
| O=c1[nH]ncc(N[C@H](CCCn2ccc3cc(-c4ncc(Cl)cn4)c(F)cc3c2=O)COC(F)F)c1C(F)(F)F [Example 381, (R)-6-(5-chloropyrimidin-2-yl)-2-(5-(difluoromethoxy)-4-((6-oxo-5-(trifluoromethyl)-1,6-dihydropyridazin-4-yl)amino)pentyl)-7-fluoroisoquinolin-1(2H)-one] | 0.28 | 0.885 |
